# Patent publication US20080226682A1, “Immunoactive Compositions for Improved Oral Delivery of Vaccines and Therapeutic Agents” (PerOs Systems Technologies, Inc., priority 2007, published 2008)
# Like-named read-outs stand apart in the source and are kept apart here.
# Assays:
# [1] = test system: LPS induced NO generation in RAW264.7 cells; assay: PUFA pretreatment, LPS induced NO generation in RAW264.7
# [2] = Plasma pharmacokinetics of antibiotics (HPLC); type: in vivo, Coho salmon (Oncorhynchus kisutch); settings: for AUC, times higher in Formula 2 than same concentration in commercial feed: oral, same dose in both; for Cmax / Tmax / AUC(0-t): plasma; for AUC(0-t): read-out: AUC(0-120 h)
# Method: In the first study, Coho salmon (n-70 fish/group) were treated with flumequine at a dose of 30 mg/kg incorporated in commercial feed or in formula F2. In the second study, fish were treated orally with florfenicol, antibiotic was given at 15 mg/kg incorporated in commercial feed or at 15 and 50 mg/kg in formula F2. In addition, florfenicol was also given via i.p. injection at 20 mg/kg. At predetermined time periods post-administration, blood samples were collected via the caudal vein according to routine procedures. Levels of antibiotics in plasma of fish were determined by high performance liquid chromatography (HPLC).
# [3] = test system: LPS-induced NO generation in RAW264.7 cells; assay: LPS-induced NO generation in RAW264.7 cells (1 hour pretreatment with isoflavones or saponins); type: cell-based, murine; settings: FIG. 11
# Method: In yet another exemplary embodiment, the ability of isoflavones to modulate the production of LPS-induced NO generation in RAW264.7 cells was investigated. […] Cells were incubated with isoflavones for 1 hour at 37±2° C.
# Cells were incubated with saponins 1 hour at 37±2° C.
# [4] = po, 30 mg/kg, oral in Oralject ™ (F2)
# [5] = po, 30 mg/kg, oral in commercial feed
# [6] = po, 15 mg/kg, oral in Oralject ™ (F2)
# [7] = po, 15 mg/kg, oral in commercial feed
# [8] = po, 50 mg/kg, oral in Oralject ™ (F2)
structure (smiles),measurement,setting,value
"CC/C=C\C/C=C\C/C=C\C/C=C\C/C=C\CCCCCC(=O)O [DPA, docosapentaenoic acid]",inhibition (text: of proliferation; FIG. 8: of LPS induced NO production),"[1]; 1 μM PUFA, 24 hours pretreatment, LPS 1 μg/ml 8 hours",40%
same,"fold more effective at inhibiting than the N-6 PUFA, AA",[1]; FIG. 8,10-100 fold
"CCCCC/C=C\C/C=C\CCCCCCCC(=O)O [LA, linoleic acid]",immunomodulatory activity,[1]; FIG. 8,marginal to no immunomodulatory activity
CC1CCc2cc(F)cc3c(=O)c(C(=O)O)cn1c23 (centres unmarked) [Flumequine],"peak plasma concentration, fold higher via Formula 2 than with commercial feed","[2]; 30 mg/kg oral, FIG. 17",approximately 5 fold
same,"AUC, times higher in Formula 2 than same concentration in commercial feed",[2],3.7 times
same,Cmax,[2]; [4],440 ng/mL
same,Tmax,[2]; [4],2 h
same,AUC(0-t),"[2]; po, 30 mg/kg, oral in Oralject ™ (F2), 30 mg/kg",61900 ng·h/mL
same,Cmax,[2]; [5],2290 ng/mL
same,Tmax,[2]; [5],8 h
same,AUC(0-t),"[2]; po, 30 mg/kg, oral in commercial feed, 30 mg/kg",16800 ng·h/mL
"CCCCC/C=C\C/C=C\C/C=C\C/C=C\CCCC(=O)O [AA, arachidonic acid]",concentration required to inhibit to a similar level (40%),"[1]; 24 hours pretreatment, LPS 1 μg/ml 8 hours",100 µM
same,immunomodulatory activity,[1]; FIG. 8,marginal to no immunomodulatory activity
CS(=O)(=O)c1ccc([C@@H](O)[C@@H](CF)NC(=O)C(Cl)Cl)cc1 [Florfenicol],"AUC, times higher in Formula 2 than same concentration in commercial feed",[2],5.2 times
same,Cmax,"[2]; ip, 20 mg/kg, i.p. injection",7050 ng/mL
same,Tmax,"[2]; ip, 20 mg/kg, i.p. injection",4 h
same,AUC(0-t),"[2]; ip, 20 mg/kg, i.p. injection, 20 mg/kg",196000 ng·h/mL
same,Cmax,[2]; [6],2150 ng/mL
same,Tmax,[2]; [6],16 h
same,AUC(0-t),"[2]; po, 15 mg/kg, oral in Oralject ™ (F2), 15 mg/kg",34400 ng·h/mL
same,Cmax,[2]; [7],1380 ng/mL
same,Tmax,[2]; [7],8 h
same,AUC(0-t),"[2]; po, 15 mg/kg, oral in commercial feed, 15 mg/kg",6700 ng·h/mL
same,Cmax,[2]; [8],7960 ng/mL
same,Tmax,[2]; [8],6 h
same,AUC(0-t),"[2]; po, 50 mg/kg, oral in Oralject ™ (F2), 50 mg/kg",136000 ng·h/mL
"CC1(C)C[C@@H](O)[C@]2(C)CC[C@]3(C)C(=CC[C@@H]4[C@@]5(C)CC[C@H](O)[C@](C)(CO)[C@@H]5CC[C@]43C)[C@@H]2C1 [sapogenol B, Sapogenol B]",rank of inhibitory potency among saponins,[3],most potent inhibitor
same,inhibition of LPS-induced NO production,[3]; lowest concentrations,Zero to minimal inhibition
same,inhibitory effect on LPS-induced NO production,[3]; saponins in DMSO,inhibited LPS-induced NO production
